Our source for the TGI and GI50 values is PubChem BioAssay (NCI).

Values joined by “and” are separate entries in the source; they are usually repeats but may differ in a detail not shown here. Identical values can stand only once.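 All cell lines were grown in 96-well plates and treated with compound for 48 hours. At the GI50, growth is halved. Definition used: TGI = concentration required for complete inhibition of growth.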

Test systems include COLO 205 colon; HOP-92 NSCLC; HCT-116 colon; OVCAR-5 ovarian; 786-0 renal; SW-620 colon; PC-3 prostate; SNB-75 CNS; SR leukemia; SF-295 CNS.
Assay in all cases: growth of human tumour cells (NCI), 48 h

On to `COc1c(C)c(C/C=C(\C)CC/C=C(\C)CC/C=C(\C)CC/C=C(\C)CCC=C(C)C)c(OC)c(OC)c1OC`, for which the TGI in the assay on COLO 205 colon is above 100 µM; with HOP-92 NSCLC, 31.8 µM; in the assay with HCT-116 colon, above 100 µM; in the assay with OVCAR-5 ovarian it was above 100 µM; with 786-0 renal, 31.8 µM; in the assay with SW-620 colon, above 100 µM. Moreover, the TGI in the assay with PC-3 prostate was above 100 µM; with SNB-75 CNS it was above 100 µM; with SR leukemia, 54.7 µM; in the assay with SF-295 CNS it was 44.2 µM.
Consider `Cc1cc(-c2nc3ccc(F)cc3s2)ccc1NC(=O)C(N)CCCCN` (stereo not drawn), for which the TGI in the assay on COLO 205 colon is 14.8 µM; in the assay with HOP-92 NSCLC, 27.7 µM; with HCT-116 colon, 10.3 µM; in the assay on OVCAR-5 ovarian it was 22.5 µM; in the assay on 786-0 renal it was 8.76 µM; in the assay on SW-620 colon it was 7.93 µM. Moreover, the TGI in the assay on PC-3 prostate was found to be 22.7 µM; in the assay with SNB-75 CNS, 12.6 µM; with SR leukemia it was 8.18 µM; in the assay with SF-295 CNS, 19.3 µM.
With `COc1ccc2c(c1)C(=O)c1c-2n(CCCN=[N+]=[N-])c(=O)c2cc([N+](=O)[O-])ccc12`, the TGI with COLO 205 colon is above 100 µM; in the assay on HCT-116 colon, 9.11 µM; with OVCAR-5 ovarian, above 100 µM; in the assay on 786-0 renal it was 0.708 µM; in the assay with SW-620 colon it was 0.783 µM; in the assay with PC-3 prostate, above 100 µM. Moreover, the TGI in the assay on SNB-75 CNS is 20.5 µM; in the assay with SR leukemia, 13.4 µM; in the assay with SF-295 CNS, 0.222 µM and 0.529 µM. The GI50 in the assay on HOP-92 NSCLC was 0.0646 µM; in the assay on SW-620 colon, below 0.001 µM; in the assay with SNB-75 CNS it was 3.47 µM; with SF-295 CNS it was 0.033 µM.
In the case of `COc1ccc2nc(N/N=C/c3ccc(C)s3)cc(C)c2c1`, the TGI with COLO 205 colon was 38.5 µM; with HOP-92 NSCLC it was 43.2 µM; in the assay with HCT-116 colon it was 35.9 µM; in the assay with OVCAR-5 ovarian, 32.6 µM; in the assay on 786-0 renal, 42.6 µM; with SW-620 colon it was above 100 µM. In addition, the TGI with PC-3 prostate was determined as 35.9 µM; in the assay on SNB-75 CNS, 46.4 µM; with SR leukemia, 61 µM; with SF-295 CNS, 37.8 µM.
With `CC(=O)OC(OC(C)=O)c1c2ccccc2cc2ccccc12`, the TGI in the assay on COLO 205 colon was 37.2 µM; with HOP-92 NSCLC, 57.5 µM; with HCT-116 colon, 28.3 µM; in the assay with OVCAR-5 ovarian it was 75.6 µM; in the assay on 786-0 renal it was 43.5 µM; in the assay on SW-620 colon, above 100 µM. For the same compound, the TGI stood at 90.5 µM in the assay on PC-3 prostate, 43.9 µM in the assay with SNB-75 CNS, 56.3 µM in the assay with SR leukemia and 45.3 µM in the assay on SF-295 CNS.
Regarding `O=C(CSc1nc2ccc(I)cc2c(=O)n1Cc1ccccc1)NNC(=S)Nc1ccccc1`, the TGI with COLO 205 colon, with HOP-92 NSCLC, with HCT-116 colon, with OVCAR-5 ovarian, in the assay with 786-0 renal and in the assay on SW-620 colon was above 100 µM in each case. Also, the TGI with PC-3 prostate is above 100 µM; with SNB-75 CNS, above 100 µM; in the assay on SR leukemia it was 23.3 µM; in the assay with SF-295 CNS, above 100 µM.
In the case of `CCSC1=N/C(=C\c2ccco2)C(Nc2ccc(C)cc2)=N1`, the TGI in the assay on COLO 205 colon, in the assay with HOP-92 NSCLC, in the assay with HCT-116 colon, in the assay on OVCAR-5 ovarian, in the assay with 786-0 renal and in the assay on SW-620 colon was above 100 µM throughout. Moreover, the TGI in the assay with PC-3 prostate, with SNB-75 CNS, in the assay on SR leukemia and in the assay with SF-295 CNS was above 100 µM each time.
As to `CC1CN=C(N(C(=O)Nc2ccc(Cl)cc2)c2cccc(Cl)c2)S1` (stereo not drawn), the TGI is 40.1 µM in the assay with COLO 205 colon; 65.4 µM in the assay with HOP-92 NSCLC; above 100 µM in the assay with HCT-116 colon; above 100 µM in the assay with OVCAR-5 ovarian; above 100 µM with 786-0 renal; above 100 µM in the assay on SW-620 colon. In addition, the TGI in the assay with PC-3 prostate, in the assay with SNB-75 CNS, with SR leukemia and with SF-295 CNS was above 100 µM each time.
On to `CC1(C)C(CBr)=[N+]([O-])C(C)(C)N1O`, for which the TGI is 3.75 µM in the assay on COLO 205 colon; 5.5 µM in the assay with HOP-92 NSCLC; 5.27 µM in the assay on HCT-116 colon; above 10 µM in the assay on OVCAR-5 ovarian; 9.78 µM with 786-0 renal; 4.86 µM with SW-620 colon. Moreover, the TGI in the assay on PC-3 prostate, in the assay with SNB-75 CNS, in the assay on SR leukemia and in the assay on SF-295 CNS was above 10 µM in each case.
Turning to `Cc1c(C)c(S(=O)(=O)N(CCCN)OCCCN)c(C)c2c1OC(C)(C)CC2`, the TGI in the assay on COLO 205 colon came to 32.1 µM; in the assay on HOP-92 NSCLC, 19.9 µM; in the assay with HCT-116 colon, 30 µM; with OVCAR-5 ovarian, 25.8 µM; in the assay with 786-0 renal, 29.4 µM; in the assay with SW-620 colon it was 29 µM. For the same compound, the TGI was 24.5 µM in the assay on PC-3 prostate, 23.4 µM in the assay on SNB-75 CNS, 33.4 µM in the assay on SR leukemia and 30.4 µM with SF-295 CNS.
In the case of `Cn1c2ccccc2c2c3c(c4c5ccccc5n(C)c4c21)C(=O)N(Cc1ccccc1)C3=O`, the TGI with COLO 205 colon, with HOP-92 NSCLC, in the assay on HCT-116 colon, with OVCAR-5 ovarian, in the assay on 786-0 renal and in the assay with SW-620 colon was above 100 µM each time. In addition, the TGI is above 100 µM with PC-3 prostate, above 100 µM with SNB-75 CNS, 51.6 µM in the assay with SR leukemia and above 100 µM in the assay with SF-295 CNS.
